Measurements reported in patent US6949548B2, “Combination therapy for the treatment of heart failure” (Orion Corporation, priority 2001, dated 2005).

System: heart failure patients
Assay: Effect of the combination on the mortality of heart failure patients
Format: in vivo, human
Method: Effect of the Combination on the Mortality of Heart Failure Patients
A 6-hour infusion of levosimendan using a bolus of 6, 12 or 24 μg/kg and subsequent infusion of 0.1, 0.2 or 0.4 μg/kg/min was given to heart failure patients with or without concomitant use of a beta-blocker. The 72-hour, 14-day and 180 day mortality was measured. It can be seen that the combination provided synergistic reduction in the mortality of the heart failure patients.

[1] = LS 6 + 0.1 (bolus 6 μg/kg, infusion 0.1 μg/kg/min, 6-hour), did not receive beta-blocker, N = 60
[2] = LS 6 + 0.1 (bolus 6 μg/kg, infusion 0.1 μg/kg/min, 6-hour), received beta-blocker, N = 43
[3] = LS 12 + 0.2 (bolus 12 μg/kg, infusion 0.2 μg/kg/min, 6-hour), did not receive beta-blocker, N = 62
[4] = LS 12 + 0.2 (bolus 12 μg/kg, infusion 0.2 μg/kg/min, 6-hour), received beta-blocker, N = 38
[5] = LS 24 + 0.2 (bolus 24 μg/kg, infusion 0.2 μg/kg/min, 6-hour), did not receive beta-blocker, N = 67
[6] = LS 24 + 0.2 (bolus 24 μg/kg, infusion 0.2 μg/kg/min, 6-hour), received beta-blocker, N = 32
[7] = LS 24 + 0.4 (bolus 24 μg/kg, infusion 0.4 μg/kg/min, 6-hour), did not receive beta-blocker, N = 57
[8] = LS 24 + 0.4 (bolus 24 μg/kg, infusion 0.4 μg/kg/min, 6-hour), received beta-blocker, N = 42

CC1CC(=O)NN=C1c1ccc(NN=C(C#N)C#N)cc1 (single isomer, unassigned; (-)) [LS, (−)-enantiomer of [[4-(1,4,5,6-tetrahydro-4-methyl-6-oxo-3-pyridazinyl)phenyl]hydrazono]propanedinitrile]
14-day mortality, % [1]: 15.0%
72-hour mortality, % [1]: 8.3%
180-day mortality, % [1]: 50.0%
14-day mortality, % [2]: 9.3%
72-hour mortality, % [2]: 2.3%
180-day mortality, % [2]: 30.2%
14-day mortality, % [3]: 8.1%
72-hour mortality, % [3]: 1.6%
180-day mortality, % [3]: 40.3%
14-day mortality, % [4]: 10.5%
72-hour mortality, % [4]: 5.3%
180-day mortality, % [4]: 26.3%
14-day mortality, % [5]: 14.9%
72-hour mortality, % [5]: 7.5%
180-day mortality, % [5]: 46.3%
14-day mortality, % [6]: 9.4%
72-hour mortality, % [6]: 0.0%
180-day mortality, % [6]: 37.5%
14-day mortality, % [7]: 15.8%
72-hour mortality, % [7]: 8.8%
180-day mortality, % [7]: 45.6%
14-day mortality, % [8]: 4.8%
72-hour mortality, % [8]: 0.0%
180-day mortality, % [8]: 23.8%
